In one assay the target is BRD4 (BDI-BDII_K57-K550) (Homo sapiens, UniProt O60885). As to the kind of experiment: TR-FRET bromodomain binding assay. The following applies: His-tagged tandem bromodomain, Alexa647-labeled probe; Ki calculated from IC50s, probe Kd and probe concentration. As for the experimental part: A time-resolved fluorescence resonance energy transfer (TR-FRET) assay was used to determine the affinities of compounds of the Examples listed in Table 1 for the tandem domain of bromodomain BRD4. […] An Alexa647-labeled BET-inhibitor was used as the fluorescent probe in the assay.
TR-FRET data were normalized to the means of 24 no-compound controls (“high”) and 8 controls containing 1 μM un-labeled probe (“low”). Percent inhibition was plotted as a function of compound concentration and the data were fit with the 4 parameter logistic equation to obtain IC50s. Inhibition constants (Ki) were calculated from the IC50s, probe Kd and probe concentration. Typical Z′ values were between 0.65 and 0.75.

The subject of assay [1] is breast cancer cell line MX-1. The assay can be described thus: MX-1 cell line proliferation assay (3-day, Cell Titer Glo). The format is cell-based. The following applies: Homo sapiens, MX1, MX-1 cells, 72 hours, read-out: Cellular proliferation: EC50. As for the experimental part:
The impact of compounds of the Examples on cancer cell proliferation was determined using the breast cancer cell line MX-1 (ATCC) in a 3-day proliferation assay and the data are reported in Table 1. […] For compound testing, MX-1 cells were plated in 96-well black bottom plates at a density of 5000 cells/well in 90 μL of culture media and incubated at 37° overnight to allow cell adhesion and spreading. Compound dilution series were prepared in DMSO via a 3-fold serial dilution from 3 mM to 0.1 μM. The DMSO dilution series were then diluted 1:100 in phosphate buffered saline, and 10 μL of the resulted solution were added to the appropriate wells of the MX-1 cell plate. The final compound concentrations in the wells were 3, 1, 0.3, 0.1, 0.03, 0.01, 0.003, 0.001, 0.0003, and 0.0001 μM, or 1, 0.3, 0.1, 0.03, 0.01, 0.003, 0.001, 0.0003, 0.0001, and 0.00003 μM.
Luminescence readings from the Cell Titer Glo assay were normalized to the DMSO treated cells and analyzed using the GraphPad Prism software with sigmoidal curve fitting to obtain EC50s.

Each structure is given as a SMILES string.

Our source for the Ki and EC50 values is US9994581B2, “Bromodomain inhibitors” (AbbVie Inc., priority 2013, dated 2018).

With `CCS(=O)(=O)Nc1ccc2c(c1)-c1cn(C)c(=O)cc1OCCCCCc1cc(Cl)ccc1O2` [Example A-19, N-(12-chloro-2-methyl-3-oxo-3,6,7,8,9,10-hexahydro-2H-dibenzo[4,5:7,8][1,6]dioxacyclotridecino[3,2-c]pyridin-18-yl)ethanesulfonamide], the Ki on BRD4 (BDI-BDII_K57-K550) is 0.00245 µM. Further, the EC50 in assay [1] came to 0.0162 µM.

Consider `CCS(=O)(=O)Nc1ccc2c(c1)-c1cn(C)c(=O)cc1OCCCCc1cc(C(F)(F)F)ccc1O2` [Example A-29, N-[2-methyl-3-oxo-11-(trifluoromethyl)-2,3,6,7,8,9-hexahydrodibenzo[4,5:7,8][1,6]dioxacyclododecino[3,2-c]pyridin-17-yl]ethanesulfonamide], for which the inhibition constant (Ki) at BRD4 (BDI-BDII_K57-K550) was 0.00074 µM. Also, in assay [1], the EC50 was 0.00397 µM.

For the molecule `CC(=O)Nc1ccc2c(c1)-c1cn(C)c(=O)cc1OCCN(C(C)=O)Cc1cc(Cl)ccc1O2` [Example B-2, N-(8-acetyl-11-chloro-2-methyl-3-oxo-2,3,6,7,8,9-hexahydrodibenzo[f,i]pyrido[3,4-k][1,8,4]dioxazacyclododecin-17-yl)acetamide], the Ki at BRD4 (BDI-BDII_K57-K550) was 0.0156 µM. Besides, in assay [1], the EC50 stood at 0.142 µM.

Turning to `CCS(=O)(=O)Nc1ccc2c(c1)-c1cn(C)c(=O)cc1OCCCCc1cccnc1O2` [Example A-46, N-(12-methyl-11-oxo-5,6,7,8,11,12-hexahydrobenzo[4,5][1,6]dioxacyclododecino[7,8-b:3,2-c′]dipyridin-15-yl)ethanesulfonamide], at BRD4 (BDI-BDII_K57-K550), the Ki is 0.0321 µM. Moreover, the EC50 in assay [1] is 0.0507 µM.

With `COC(=O)c1cnc2c(c1)-c1cn(C)c(=O)cc1OCCCCc1cc(Cl)ccc1O2` [Example A-31, methyl 11-chloro-2-methyl-3-oxo-2,3,6,7,8,9-hexahydrobenzo[11,12][1,6]dioxacyclododecino[2,3-b:4,5-c′]dipyridine-17-carboxylate], the Ki at BRD4 (BDI-BDII_K57-K550) was 0.0243 µM. In assay [1], the EC50 was 0.302 µM.

With `CCS(=O)(=O)c1ccc2c(c1)-c1cn(C)c(=O)cc1OCCCCc1ccccc1O2` [Example A-4, 17-(ethylsulfonyl)-2-methyl-6,7,8,9-tetrahydrodibenzo[4,5:7,8][1,6]dioxacyclododecino[3,2-c]pyridin-3(2H)-one], the Ki at BRD4 (BDI-BDII_K57-K550) is 0.00307 µM. The EC50 in assay [1] turned out to be 0.0104 µM.

For the molecule `CCS(=O)(=O)Nc1ccc2c(c1)-c1cn(C)c(=O)cc1OCC/C=C/Cc1cc(Cl)ccc1O2` [Example A-15, (E)-N-(12-chloro-2-methyl-3-oxo-3,6,7,10-tetrahydro-2H-dibenzo[4,5:7,8][1,6]dioxacyclotridecino[3,2-c]pyridin-18-yl)ethanesulfonamide], the Ki at BRD4 (BDI-BDII_K57-K550) is 0.00306 µM. Further, the EC50 in assay [1] stood at 0.0424 µM.

With `CCS(=O)(=O)Nc1ccc2c(c1)-c1cn(C)c(=O)cc1OCCNC(=O)c1cc(Cl)ccc1O2` [Example B-4, N-(11-chloro-2-methyl-3,9-dioxo-2,3,6,7,8,9-hexahydrodibenzo[f,i]pyrido[3,4-k][1,8,4]dioxazacyclododecin-17-yl)ethanesulfonamide], at BRD4 (BDI-BDII_K57-K550), the Ki was 0.0105 µM. Besides, the EC50 in assay [1] was determined as 0.257 µM.

On to `CCOC(=O)N1CCOc2cc(=O)n(C)cc2-c2cc(NS(=O)(=O)CC)ccc2Oc2ccc(Cl)cc2C1` [Example B-8, ethyl 11-chloro-17-[(ethylsulfonyl)amino]-2-methyl-3-oxo-2,3,6,7-tetrahydrodibenzo[f,i]pyrido[3,4-k][1,8,4]dioxazacyclododecine-8(9H)-carboxylate], for which the Ki on BRD4 (BDI-BDII_K57-K550) is 0.00097 µM. Also, in assay [1], the EC50 stood at 0.017 µM.

`CCS(=O)(=O)c1ccc2c(c1)-c1nn(C)c(=O)cc1OCCCCc1cc(F)cc(F)c1O2` [Example A-57, 17-(ethylsulfonyl)-11,13-difluoro-2-methyl-6,7,8,9-tetrahydrodibenzo[4,5:7,8][1,6]dioxacyclododecino[3,2-c]pyridazin-3(2H)-one]: the Ki at BRD4 (BDI-BDII_K57-K550) was 0.00844 µM. Further, in assay [1], the EC50 was 0.0531 µM.

Consider `CCS(=O)(=O)Nc1ccc2c(c1)-c1cn(C)c(=O)cc1OCCN(S(C)(=O)=O)Cc1cc(Cl)ccc1O2` [Example B-6, N-[11-chloro-2-methyl-8-(methylsulfonyl)-3-oxo-2,3,6,7,8,9-hexahydrodibenzo[f,i]pyrido[3,4-k][1,8,4]dioxazacyclododecin-17-yl]ethanesulfonamide], for which the Ki on BRD4 (BDI-BDII_K57-K550) is 0.00157 µM. Besides, the EC50 in assay [1] worked out at 0.0171 µM.

As to `Cn1cc2c(cc1=O)OCCCCc1cc(Cl)ccc1Oc1ccc(N)cc1-2` [Example A-8, 17-amino-11-chloro-2-methyl-6,7,8,9-tetrahydrodibenzo[4,5:7,8][1,6]dioxacyclododecino[3,2-c]pyridin-3(2H)-one], the Ki on BRD4 (BDI-BDII_K57-K550) was 0.0252 µM.

Consider `CCS(=O)(=O)Nc1ccc2c(c1)-c1cn(C)c(=O)cc1OCCCCc1cc(F)c(F)cc1O2` [Example A-48, N-(11,12-difluoro-2-methyl-3-oxo-2,3,6,7,8,9-hexahydrodibenzo[4,5:7,8][1,6]dioxacyclododecino[3,2-c]pyridin-17-yl)ethanesulfonamide], for which the inhibition constant Ki at BRD4 (BDI-BDII_K57-K550) was 0.00132 µM. Moreover, in assay [1], the EC50 came to 0.00431 µM.

As to `CCS(=O)(=O)c1ccc2c(c1)-c1cn(C)c(=O)cc1OCC/C=C/c1ccc(Cl)cc1O2` [Example A-24, (E)-12-chloro-17-(ethylsulfonyl)-2-methyl-6,7-dihydrodibenzo[4,5:7,8][1,6]dioxacyclododecino[3,2-c]pyridin-3(2H)-one], the Ki at BRD4 (BDI-BDII_K57-K550) is 0.00334 µM. Moreover, in assay [1], the EC50 stood at 0.0164 µM.

For the molecule `CCS(=O)(=O)Nc1ccc2c(c1)-c1cn(C)c(=O)cc1OCCC/C=C/c1cc(Cl)ccc1O2` [Example A-16, (E)-N-(12-chloro-2-methyl-3-oxo-3,6,7,8-tetrahydro-2H-dibenzo[4,5:7,8][1,6]dioxacyclotridecino[3,2-c]pyridin-18-yl)ethanesulfonamide], the Ki at BRD4 (BDI-BDII_K57-K550) was 0.00166 µM. In assay [1], the EC50 was 0.0152 µM.

Consider `Cn1cc2c(cc1=O)OCCCc1cc(Cl)ccc1Oc1ccc(N)cc1-2` [Example A-7, 16-amino-10-chloro-2-methyl-7,8-dihydro-2H-dibenzo[4,5:7,8][1,6]dioxacycloundecino[3,2-c]pyridin-3(6H)-one], for which, on BRD4 (BDI-BDII_K57-K550), the Ki was 0.0257 µM. In assay [1], the EC50 was 0.109 µM.

As to `CC(=O)Nc1ccc2c(c1)-c1cn(C)c(=O)cc1OCCCc1cc(Cl)ccc1O2` [Example A-11, N-(10-chloro-2-methyl-3-oxo-3,6,7,8-tetrahydro-2H-dibenzo[4,5:7,8][1,6]dioxacycloundecino[3,2-c]pyridin-16-yl)acetamide], the Ki on BRD4 (BDI-BDII_K57-K550) was 0.00537 µM. Also, the EC50 in assay [1] came out at 0.0306 µM.

On to `CCS(=O)(=O)Nc1ccc2c(c1)-c1cn(C)c(=O)cc1OCCCCc1cc(F)ccc1O2` [Example A-49, N-(11-fluoro-2-methyl-3-oxo-2,3,6,7,8,9-hexahydrodibenzo[4,5:7,8][1,6]dioxacyclododecino[3,2-c]pyridin-17-yl)ethanesulfonamide], for which the Ki on BRD4 (BDI-BDII_K57-K550) was 0.00157 µM. Besides, the EC50 in assay [1] came to 0.00364 µM.

`CCS(=O)(=O)c1ccc2c(c1)-c1nn(C)c(=O)cc1OCCCCc1cc(Cl)ccc1O2` [Example A-53, 11-chloro-17-(ethylsulfonyl)-2-methyl-6,7,8,9-tetrahydrodibenzo[4,5:7,8][1,6]dioxacyclododecino[3,2-c]pyridazin-3(2H)-one]: the Ki on BRD4 (BDI-BDII_K57-K550) was 0.00632 µM. Further, the EC50 in assay [1] worked out at 0.0475 µM.

In the case of `CCS(=O)(=O)Nc1ccc2c(c1)-c1cn(C)c(=O)cc1OCCCCc1cc(Cl)cnc1O2` [Example A-41, N-(3-chloro-12-methyl-11-oxo-5,6,7,8,11,12-hexahydrobenzo[4,5][1,6]dioxacyclododecino[7,8-b:3,2-c′]dipyridin-15-yl)ethanesulfonamide], the Ki on BRD4 (BDI-BDII_K57-K550) was 0.00805 µM. The EC50 in assay [1] was determined as 0.0268 µM.

As for `CCS(=O)(=O)c1ccc2c(c1)-c1cn(C)c(=O)cc1OCCCc1ccccc1O2` [Example A-1, 16-(ethylsulfonyl)-2-methyl-7,8-dihydro-2H-dibenzo[4,5:7,8][1,6]dioxacycloundecino[3,2-c]pyridin-3(6H)-one], the Ki on BRD4 (BDI-BDII_K57-K550) was 0.00458 µM. Besides, the EC50 in assay [1] was determined as 0.00689 µM.

For the molecule `CCS(=O)(=O)Nc1ccc2c(c1)-c1cn(C)c(=O)cc1OCCCCc1cc(OC(F)(F)F)ccc1O2` [Example A-37, N-[2-methyl-3-oxo-11-(trifluoromethoxy)-2,3,6,7,8,9-hexahydrodibenzo[4,5:7,8][1,6]dioxacyclododecino[3,2-c]pyridin-17-yl]ethanesulfonamide], the Ki at BRD4 (BDI-BDII_K57-K550) is 0.00087 µM. In addition, in assay [1], the EC50 was determined as 0.00612 µM.

On to `Cn1cc2c(cc1=O)OCCCCc1cc(Cl)ccc1Oc1ncc(CO)cc1-2` [Example A-39, 11-chloro-17-(hydroxymethyl)-2-methyl-6,7,8,9-tetrahydrobenzo[11,12][1,6]dioxacyclododecino[2,3-b:4,5-c′]dipyridin-3(2H)-one], for which the Ki at BRD4 (BDI-BDII_K57-K550) was 0.0157 µM. Moreover, the EC50 in assay [1] stood at 0.173 µM.

For `Cn1cc2c(cc1=O)OCCCCc1cc(Cl)ccc1Oc1ncc(N)cc1-2` [Example A-32, 17-amino-11-chloro-2-methyl-6,7,8,9-tetrahydrobenzo[11,12][1,6]dioxacyclododecino[2,3-b:4,5-c′]dipyridin-3(2H)-one], on BRD4 (BDI-BDII_K57-K550), the Ki is 0.0887 µM.
